According to patent publication US20090318546A1, “Chromen-2-One Derivatives” (NOVARTIS AG, priority 2006, published 2009):

Legend:
Assay type in all cases: cell-based
[1] = molecular target: T1, S1P-4 (Homo sapiens, UniProt O95977); test: FLIPR calcium flux assay, S1P-4; conditions: agonist activity
T1 construct: expressed in transfected cells; host or cells: CHO cells (G418 selection)
T1 sequence (O95977 1-384): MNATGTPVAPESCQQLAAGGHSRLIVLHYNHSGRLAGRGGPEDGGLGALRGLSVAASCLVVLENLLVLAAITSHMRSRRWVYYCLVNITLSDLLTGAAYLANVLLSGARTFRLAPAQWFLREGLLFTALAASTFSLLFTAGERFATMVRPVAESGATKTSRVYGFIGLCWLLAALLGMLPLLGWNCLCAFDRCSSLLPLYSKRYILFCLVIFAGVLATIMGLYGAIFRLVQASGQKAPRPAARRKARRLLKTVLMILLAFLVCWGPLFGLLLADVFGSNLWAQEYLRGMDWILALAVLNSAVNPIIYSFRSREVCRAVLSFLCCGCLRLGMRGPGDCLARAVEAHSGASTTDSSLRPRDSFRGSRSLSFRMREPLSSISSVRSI

[2] = molecular target: T2, S1P1 (Homo sapiens, UniProt P21453); test: FLIPR calcium flux assay, CHO cells expressing S1P1; conditions: agonist activity; read-out: EC50 for S1P-1
T2 construct: expressed in transfected cells; host or cells: CHO cells (G418 selection)
Experimental: (§1) A.2 FLIPR Calcium Flux Assay
(§2) Compounds of the invention are tested for agonist activity on S1P1, S1P3, S1P5, and S1P6 with a FLIPR calcium flux assay. Briefly, CHO cells expressing an S1P receptor are maintained in F-12K medium (ATCC), containing 5% FBS, with 500 ug/ml of G418. Prior to the assay, the cells are plated in 384 black clear bottom plates at the density of 10,000 cells/well/25 µl in the medium of F-12K containing 1% FBS. The second day, the cells are washed three times (25 μl/each) with washing buffer. About 25 μl of dye are added to each well and incubated for 1 hour at 37° C. and 5% CO2. The cells are then washed four times with washing buffer (25 μl/each). The calcium flux is assayed after adding 25 μl of SEW2871 (published by Rosen et al., used as reference) solution to each well of cells. The same assay is performed with cells expressing each of the different S1P receptors. Titration in the FLIPR calcium flux assay is recorded over a 3-minute interval, and quantitated as maximal peak height percentage response relative to S1P-1 activation. The compounds of the invention are active in this assay at a concentration of from 10^−12 and […].

[3] = molecular target: T3, S1P3 (Homo sapiens, UniProt Q99500); test: FLIPR calcium flux assay, CHO cells expressing S1P3; conditions: agonist activity; read-out: EC50 for S1P-3
T3 construct: expressed in transfected cells; host or cells: CHO cells (G418 selection)
Experimental: as §1, §2

[4] = molecular target: T4, S1P5 (Homo sapiens, UniProt Q9H228); test: FLIPR calcium flux assay, CHO cells expressing S1P5; conditions: agonist activity; read-out: EC50 for S1P-5
T4 construct: expressed in transfected cells; host or cells: CHO cells (G418 selection)
Experimental: as §1, §2

[5] = molecular target: T5, S1P-2 (Homo sapiens, UniProt O95136); test: FLIPR calcium flux assay, S1P-2; conditions: agonist activity
T5 construct: expressed in transfected cells; host or cells: CHO cells (G418 selection)
Experimental: as §1, §2

T4 sequence (Q9H228 whole entry): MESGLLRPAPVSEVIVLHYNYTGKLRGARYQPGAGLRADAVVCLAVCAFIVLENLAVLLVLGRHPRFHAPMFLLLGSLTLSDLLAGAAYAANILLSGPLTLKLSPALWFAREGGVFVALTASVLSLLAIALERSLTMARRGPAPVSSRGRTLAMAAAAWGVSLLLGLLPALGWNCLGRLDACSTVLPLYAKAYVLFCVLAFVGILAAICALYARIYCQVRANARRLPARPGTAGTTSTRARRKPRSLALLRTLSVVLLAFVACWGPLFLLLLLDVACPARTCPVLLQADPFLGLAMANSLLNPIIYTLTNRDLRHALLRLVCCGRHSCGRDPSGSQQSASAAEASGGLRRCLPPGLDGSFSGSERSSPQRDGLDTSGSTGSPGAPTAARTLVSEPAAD
T2 sequence (P21453 whole entry): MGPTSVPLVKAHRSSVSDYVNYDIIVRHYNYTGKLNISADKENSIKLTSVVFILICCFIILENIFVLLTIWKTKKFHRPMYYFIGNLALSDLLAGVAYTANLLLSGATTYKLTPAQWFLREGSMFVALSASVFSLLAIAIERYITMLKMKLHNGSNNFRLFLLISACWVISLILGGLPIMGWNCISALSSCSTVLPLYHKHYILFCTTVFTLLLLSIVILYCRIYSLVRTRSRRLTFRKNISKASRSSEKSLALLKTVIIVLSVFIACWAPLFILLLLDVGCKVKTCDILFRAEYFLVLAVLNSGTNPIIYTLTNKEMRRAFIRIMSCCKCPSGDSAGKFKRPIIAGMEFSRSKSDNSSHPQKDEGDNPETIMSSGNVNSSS
T5 sequence (O95136 whole entry): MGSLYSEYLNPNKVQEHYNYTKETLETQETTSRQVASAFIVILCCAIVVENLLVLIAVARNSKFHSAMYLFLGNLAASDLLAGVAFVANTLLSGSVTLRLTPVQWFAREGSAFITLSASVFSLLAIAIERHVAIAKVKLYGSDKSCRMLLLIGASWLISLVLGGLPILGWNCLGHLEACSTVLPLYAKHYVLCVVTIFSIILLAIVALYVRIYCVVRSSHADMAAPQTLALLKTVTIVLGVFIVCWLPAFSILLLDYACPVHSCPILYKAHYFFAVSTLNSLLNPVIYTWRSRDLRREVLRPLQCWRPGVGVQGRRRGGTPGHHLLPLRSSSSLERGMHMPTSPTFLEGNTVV
T3 sequence (Q99500 whole entry): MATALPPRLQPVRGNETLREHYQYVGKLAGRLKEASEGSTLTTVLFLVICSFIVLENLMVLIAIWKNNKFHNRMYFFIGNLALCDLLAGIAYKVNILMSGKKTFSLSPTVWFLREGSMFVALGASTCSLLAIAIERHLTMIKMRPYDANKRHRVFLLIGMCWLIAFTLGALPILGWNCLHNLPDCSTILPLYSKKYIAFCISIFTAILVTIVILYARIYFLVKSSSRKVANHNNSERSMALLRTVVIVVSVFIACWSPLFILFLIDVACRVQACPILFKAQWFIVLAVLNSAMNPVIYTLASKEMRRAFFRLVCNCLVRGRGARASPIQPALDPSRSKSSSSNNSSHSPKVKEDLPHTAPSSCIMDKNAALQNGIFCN

EC50 [1]: > 1000 nM
EC50 [2]: 8.7 nM
EC50 [3]: > 1000 nM
EC50 [4]: > 1000 nM
EC50 [5]: > 1000 nM
Structure (SMILES): CCCc1c(OC)ccc2cc(C(=O)Nc3ccc(CN)cc3)c(=O)oc12 [Example 1, 7-Methoxy-2-oxo-8-propyl-2H-chromene-3-carboxylic acid (4-aminomethyl-phenyl)-amide]
